The source of these data is PubChem BioAssay (NCI).

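Exposure lasted 48 hours, with cells grown in 96-well plates and compounds tested at five concentrations. GI50 is the concentration that inhibits growth by half. At the TGI there is no net growth.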

The first experiment has as its system T-47D breast. The experiment is described as follows: NCI tumour cell line growth inhibition, 48 h.
`Cc1ccc(S(=O)(=O)Nc2ccccc2C(=O)c2ccc(C)c(C)c2)cc1`: the TGI was greater than 100 µM.
As to `NS(=O)(=O)c1cc(Br)c(N=Nc2ccc(O)c3ncccc23)c(Br)c1`, the TGI came out at 98.8 µM.
The same measure, in the same setting: with `O=S(=O)(CCn1c(Sc2ccccc2)c(Sc2ccccc2)c2ccccc21)c1ccccc1` the figure was greater than 100 µM.
Take `O=C(Nc1ccc(Cl)cc1)c1cccc(NC2=C(Cl)C(=O)N(Cc3ccccc3)C2=O)c1`: the GI50 was 11.4 µM and the TGI came out at 78.5 µM.
For `O=C(/C=C/c1ccncc1)c1cc(Cl)ccc1O` the same measures were 18.8 µM and 53.1 µM.
Regarding `OCC#Cc1ccccc1C#Cc1ccccc1`, the GI50 is 18.1 µM and the TGI is 37.6 µM.
Take `Cc1cc(/C=C/c2ccc3cc(N(C)C)ccc3[n+]2C)c(C)n1-c1ccccc1`: the GI50 is 0.0635 µM and the TGI amounted to 1.15 µM.
Take `CCCC(=O)OC1CC(n2cc(F)c(=O)[nH]c2=O)OC1COP(=O)(OCC(Cl)(Cl)Cl)OCC(Cl)(Cl)Cl` (stereo unspecified): the TGI is greater than 31.6 µM.
As for `ClCc1cccc(Cn2cnc3ncnc(Cl)c32)c1`, the GI50 is 0.212 µM and the TGI worked out at 0.497 µM.
Compound `OC(c1nc2ccccc2[nH]1)C(O)C(O)C(O)c1nc2ccccc2[nH]1` (stereo unspecified) displayed a TGI greater than 100 µM.
As for `C[C@@H]1CCC2[C@@H](C)[C@@H](OCC(CO[C@H]3OC4O[C@@]5(C)CC[C@H]6[C@H](C)CCC([C@H]3C)[C@@]46OO5)OC(=O)CCC(=O)O)OC3O[C@@]4(C)CC[C@@H]1[C@]32OO4` (stereo partly specified), the GI50 is less than 0.01 µM and the TGI is greater than 100 µM.
Consider `CC(C)C(C)/C=C\C(C)C1CCC2C3=CC=C4CC(O)CCC4(C)C3CCC21C` (stereo unspecified), for which the TGI is greater than 100 µM.
Take `COc1cc(/C=C2\CN(S(=O)(=O)c3ccccc3)C/C(=C\c3cc(CN4CCCC4)c(O)c(OC)c3)C2=O)cc(CN2CCCC2)c1O`: the GI50 was 3.76 µM and the TGI is greater than 100 µM.
With `COc1cc2c3c(n(C)c(=O)c2cc1OC)-c1cc2c(cc1/C3=C\CCN)OCO2`, the GI50 was 1.08 µM and the TGI is greater than 100 µM.

The next experiment has as its system K-562 leukemia. The experiment is described as follows: NCI tumour cell line growth inhibition, 48 h.
For `NS(=O)(=O)c1cc(Br)c(N=Nc2ccc(O)c3ncccc23)c(Br)c1`, the TGI is greater than 100 µM.
Compound `O=S(=O)(CCn1c(Sc2ccccc2)c(Sc2ccccc2)c2ccccc21)c1ccccc1` yielded a TGI greater than 100 µM.
On to `O=C(Nc1ccc(Cl)cc1)c1cccc(NC2=C(Cl)C(=O)N(Cc3ccccc3)C2=O)c1`, for which the GI50 was 5.83 µM and the TGI is 28.3 µM.
For `OCC#Cc1ccccc1C#Cc1ccccc1`, the GI50 was 26 µM and the TGI was greater than 100 µM.
Regarding `ClCc1cccc(Cn2cnc3ncnc(Cl)c32)c1`, the GI50 is 16.6 µM and the TGI is 48.1 µM.
In turn, `OC(c1nc2ccccc2[nH]1)C(O)C(O)C(O)c1nc2ccccc2[nH]1` (stereo unspecified) returned a TGI greater than 100 µM.
Consider `C[C@@H]1CCC2[C@@H](C)[C@@H](OCC(CO[C@H]3OC4O[C@@]5(C)CC[C@H]6[C@H](C)CCC([C@H]3C)[C@@]46OO5)OC(=O)CCC(=O)O)OC3O[C@@]4(C)CC[C@@H]1[C@]32OO4` (stereo partly specified), for which the GI50 was less than 0.0479 µM and the TGI was greater than 42.2 µM.
On to `CC(C)C(C)/C=C\C(C)C1CCC2C3=CC=C4CC(O)CCC4(C)C3CCC21C` (stereo unspecified), for which the TGI is greater than 100 µM.
Same read-out and setting: for `CC(=O)/C(=C\c1cccc([N+](=O)[O-])c1)C(=O)Nc1ccccc1C` the value was greater than 100 µM.
In the case of `COc1cc2c3c(n(C)c(=O)c2cc1OC)-c1cc2c(cc1/C3=C\CCN)OCO2`, the GI50 is 0.0397 µM and the TGI stood at 1.5 µM.

A further experiment has as its system HOP-62 NSCLC. The experiment is described as follows: NCI tumour cell line growth inhibition, 48 h.
With `Cc1ccc(S(=O)(=O)Nc2ccccc2C(=O)c2ccc(C)c(C)c2)cc1`, the TGI was greater than 100 µM.
Still for that read-out and setting: for `NS(=O)(=O)c1cc(Br)c(N=Nc2ccc(O)c3ncccc23)c(Br)c1` the value was greater than 100 µM; for `O=S(=O)(CCn1c(Sc2ccccc2)c(Sc2ccccc2)c2ccccc21)c1ccccc1`, greater than 100 µM.
On to `O=C(Nc1ccc(Cl)cc1)c1cccc(NC2=C(Cl)C(=O)N(Cc3ccccc3)C2=O)c1`, for which the GI50 is 10.3 µM and the TGI turned out to be 22 µM.
For `O=C(/C=C/c1ccncc1)c1cc(Cl)ccc1O`, in that order: 18.3 µM and 43.8 µM.
On to `OCC#Cc1ccccc1C#Cc1ccccc1`, for which the GI50 is 13.9 µM and the TGI came to 26.8 µM.
Turning to `Cc1cc(/C=C/c2ccc3cc(N(C)C)ccc3[n+]2C)c(C)n1-c1ccccc1`, the GI50 is 0.191 µM and the TGI was determined as 1.03 µM.
Compound `CCCC(=O)OC1CC(n2cc(F)c(=O)[nH]c2=O)OC1COP(=O)(OCC(Cl)(Cl)Cl)OCC(Cl)(Cl)Cl` (stereo unspecified) gave a TGI greater than 100 µM.
Regarding `ClCc1cccc(Cn2cnc3ncnc(Cl)c32)c1`, the GI50 was 2.17 µM and the TGI came to 3.99 µM.
Compound `OC(c1nc2ccccc2[nH]1)C(O)C(O)C(O)c1nc2ccccc2[nH]1` (stereo unspecified) returned a TGI greater than 100 µM.
Consider `C[C@@H]1CCC2[C@@H](C)[C@@H](OCC(CO[C@H]3OC4O[C@@]5(C)CC[C@H]6[C@H](C)CCC([C@H]3C)[C@@]46OO5)OC(=O)CCC(=O)O)OC3O[C@@]4(C)CC[C@@H]1[C@]32OO4` (stereo partly specified), for which the GI50 was 0.99 µM and the TGI came to 22.1 µM.
Turning to `CC(C)C(C)/C=C\C(C)C1CCC2C3=CC=C4CC(O)CCC4(C)C3CCC21C` (stereo unspecified), the TGI is greater than 79.5 µM.
In turn, `CC(=O)/C(=C\c1cccc([N+](=O)[O-])c1)C(=O)Nc1ccccc1C` had a TGI greater than 100 µM.
Take `COc1cc2c3c(n(C)c(=O)c2cc1OC)-c1cc2c(cc1/C3=C\CCN)OCO2`: the GI50 is 0.067 µM and the TGI is 5.8 µM.

For the next experiment, the system named is SNB-19 CNS. The experiment is described as follows: NCI tumour cell line growth inhibition, 48 h.
In turn, `Cc1ccc(S(=O)(=O)Nc2ccccc2C(=O)c2ccc(C)c(C)c2)cc1` showed a TGI greater than 100 µM.
On the same count and under the same terms, for `NS(=O)(=O)c1cc(Br)c(N=Nc2ccc(O)c3ncccc23)c(Br)c1` the value was greater than 100 µM.
On to `O=S(=O)(CCn1c(Sc2ccccc2)c(Sc2ccccc2)c2ccccc21)c1ccccc1`, for which the TGI is greater than 100 µM.
As to `O=C(Nc1ccc(Cl)cc1)c1cccc(NC2=C(Cl)C(=O)N(Cc3ccccc3)C2=O)c1`, the GI50 was 17.6 µM and the TGI was 45.9 µM.
For `O=C(/C=C/c1ccncc1)c1cc(Cl)ccc1O` the same measures were 17.7 µM and 40.2 µM.
As to `OCC#Cc1ccccc1C#Cc1ccccc1`, the GI50 is 20.6 µM and the TGI stood at 38.7 µM.
In the case of `Cc1cc(/C=C/c2ccc3cc(N(C)C)ccc3[n+]2C)c(C)n1-c1ccccc1`, the GI50 is 0.161 µM and the TGI worked out at 5.97 µM.
For the compound `CCCC(=O)OC1CC(n2cc(F)c(=O)[nH]c2=O)OC1COP(=O)(OCC(Cl)(Cl)Cl)OCC(Cl)(Cl)Cl` (stereo unspecified), the TGI was greater than 100 µM.
On to `OC(c1nc2ccccc2[nH]1)C(O)C(O)C(O)c1nc2ccccc2[nH]1` (stereo unspecified), for which the TGI was greater than 100 µM.
Regarding `C[C@@H]1CCC2[C@@H](C)[C@@H](OCC(CO[C@H]3OC4O[C@@]5(C)CC[C@H]6[C@H](C)CCC([C@H]3C)[C@@]46OO5)OC(=O)CCC(=O)O)OC3O[C@@]4(C)CC[C@@H]1[C@]32OO4` (stereo partly specified), the GI50 was 10.1 µM and the TGI stood at 23.1 µM.
As for `CC(C)C(C)/C=C\C(C)C1CCC2C3=CC=C4CC(O)CCC4(C)C3CCC21C` (stereo unspecified), the TGI was greater than 100 µM.
Turning to `COc1cc(/C=C2\CN(S(=O)(=O)c3ccccc3)C/C(=C\c3cc(CN4CCCC4)c(O)c(OC)c3)C2=O)cc(CN2CCCC2)c1O`, the GI50 was 1.49 µM and the TGI was 3.08 µM.
On to `CC(=O)/C(=C\c1cccc([N+](=O)[O-])c1)C(=O)Nc1ccccc1C`, for which the TGI is greater than 100 µM.
On to `COc1cc2c3c(n(C)c(=O)c2cc1OC)-c1cc2c(cc1/C3=C\CCN)OCO2`, for which the GI50 is 0.394 µM and the TGI was determined as 16.3 µM.

For another experiment, the system named is RXF 393 renal. The experiment is described as follows: NCI tumour cell line growth inhibition, 48 h.
Turning to `Cc1ccc(S(=O)(=O)Nc2ccccc2C(=O)c2ccc(C)c(C)c2)cc1`, the TGI is greater than 100 µM.
The compound `NS(=O)(=O)c1cc(Br)c(N=Nc2ccc(O)c3ncccc23)c(Br)c1` gave a TGI greater than 100 µM.
As for `O=C(/C=C/c1ccncc1)c1cc(Cl)ccc1O`, the GI50 was 18.3 µM and the TGI came out at 33.1 µM.
For `Cc1cc(/C=C/c2ccc3cc(N(C)C)ccc3[n+]2C)c(C)n1-c1ccccc1`, in that order: 0.199 µM and 0.987 µM.
As for `ClCc1cccc(Cn2cnc3ncnc(Cl)c32)c1`, the GI50 was 2.02 µM and the TGI was found to be 17.4 µM.
`OC(c1nc2ccccc2[nH]1)C(O)C(O)C(O)c1nc2ccccc2[nH]1` (stereo unspecified) returned a TGI greater than 100 µM.
Take `C[C@@H]1CCC2[C@@H](C)[C@@H](OCC(CO[C@H]3OC4O[C@@]5(C)CC[C@H]6[C@H](C)CCC([C@H]3C)[C@@]46OO5)OC(=O)CCC(=O)O)OC3O[C@@]4(C)CC[C@@H]1[C@]32OO4` (stereo partly specified): the GI50 is less than 0.01 µM and the TGI was 0.205 µM.
Compound `CC(C)C(C)/C=C\C(C)C1CCC2C3=CC=C4CC(O)CCC4(C)C3CCC21C` (stereo unspecified) returned a TGI greater than 58.7 µM.
For the compound `COc1cc(/C=C2\CN(S(=O)(=O)c3ccccc3)C/C(=C\c3cc(CN4CCCC4)c(O)c(OC)c3)C2=O)cc(CN2CCCC2)c1O`, the GI50 is 1.27 µM and the TGI amounted to 2.8 µM.
For `CC(=O)/C(=C\c1cccc([N+](=O)[O-])c1)C(=O)Nc1ccccc1C`, the TGI is greater than 100 µM.
Regarding `COc1cc2c3c(n(C)c(=O)c2cc1OC)-c1cc2c(cc1/C3=C\CCN)OCO2`, the GI50 was 0.823 µM and the TGI came out at 6.86 µM.
